Read-outs that look alike come from different tables or passages of the source.
Experiments:
CCR2 = CCR2 (Homo sapiens, UniProt P41597); assay: β-arrestin selectivity assay, CCR2; format: cell-based
CCR7 [1] = molecular target: T1, CCR7 (Homo sapiens, UniProt P32248); assay: TANGO β-arrestin agonist assay, CCR7; format: cell-based
T1 construct: expressed in transfected cells
T1 sequence (P32248 25-378): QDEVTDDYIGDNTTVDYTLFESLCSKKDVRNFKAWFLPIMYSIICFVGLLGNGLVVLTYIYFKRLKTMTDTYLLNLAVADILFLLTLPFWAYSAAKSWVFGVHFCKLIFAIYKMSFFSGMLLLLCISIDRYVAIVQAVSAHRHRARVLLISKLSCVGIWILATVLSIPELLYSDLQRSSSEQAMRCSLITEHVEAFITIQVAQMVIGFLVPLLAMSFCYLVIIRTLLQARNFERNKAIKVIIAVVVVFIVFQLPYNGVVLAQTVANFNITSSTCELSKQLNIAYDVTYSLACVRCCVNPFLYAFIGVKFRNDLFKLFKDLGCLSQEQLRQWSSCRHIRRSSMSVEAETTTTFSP
Protocol: (§1) Selected compounds were initially sent for both antagonist and agonist TANGO β-arrestin assays. […] Replacement only on the amide group with CN led to strong activity decrease in β-arrestin assay: only 31% activity at about 30 μM and similar one at 100 μM (Table 1). Five more derivatives with replaced amide group were also tested in parallel by Ca^2+ mobilization assay and they all were not active up to the tested concertation of 100 μM.

[2] = Maximal tolerated dose (MTD) study in BALB/c mice; format: in vivo; details: daily (QD) oral doses of 30 mg/kg and 150 mg/kg
Protocol: Design of the in vivo study: A total of 44 female BALB/c mice (12 mice for maximal tolerance dose (MTD) study; 32 mice for efficacy study) were used in the 4T-1-Luc study. The animals were specific pathogen free and approximately 4-5 weeks old at the initiation of the study.
MTD studies: Initially, 10 BALB/c mice were used for the maximal tolerated dose (MTD) response study determination. The mice were randomized based on body weight and were treated with Hit 1 compound with daily (QD) oral doses of 30 mg/kg and 150 mg/kg. Body weight was measured daily.

CCR7 [3] = molecular target: T1, CCR7; assay: TANGO β-arrestin antagonist assay, CCR7; format: cell-based
Protocol: as §1
In current CCR7-β-arrestin antagonistic assay a Hill coefficient of 15.1 was obtained, without any transformation of the data. Instead for CCR1, CCR2, CCR3 and CCR5 coefficients much closer to one were calculated, 2.3, 3.1, 2.6 and 1.9, respectively. Moreover, the increase of the activity for CCR3 and CCR5 were over 50-folds for concentrations where the activity raised. […] Further, the CCR7-β-arrestin antagonistic assay was repeated and retrieved almost identical results.

Chain of CCR2 (P41597 whole entry): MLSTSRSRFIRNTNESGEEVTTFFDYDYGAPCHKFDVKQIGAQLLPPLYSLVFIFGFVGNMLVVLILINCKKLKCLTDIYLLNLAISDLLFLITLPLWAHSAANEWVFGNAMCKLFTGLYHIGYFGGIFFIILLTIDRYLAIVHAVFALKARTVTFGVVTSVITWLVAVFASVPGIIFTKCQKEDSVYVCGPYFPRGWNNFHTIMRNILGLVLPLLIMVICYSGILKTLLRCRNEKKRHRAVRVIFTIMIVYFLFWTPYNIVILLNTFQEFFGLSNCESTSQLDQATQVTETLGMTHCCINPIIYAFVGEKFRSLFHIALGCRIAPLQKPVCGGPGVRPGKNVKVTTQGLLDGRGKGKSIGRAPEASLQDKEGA

NC(=O)c1ccccc1Oc1ncnc2sc(-c3ccccc3)cc12 [Hit 1, 2-({6-phenylthieno[2,3-d]pyrimidin-4-yl}oxy)benzamide]
Hill coefficient (CCR2): 3.1
IC50 (CCR2): 2.6 µM
agonist activity (CCR7 [1]): no any agonist activity
behavior and side effects [2]: did not show abnormal behavior
body weight loss [2]: A significant (>20%) body lost was not observed
inhibition at 100 µM (CCR7 [3]; 100 μM concentration, read-out: β-arrestin assay (100 μM), Percent of inhibition): 110%
Hill coefficient (CCR7 [3]; CCR7-β-arrestin antagonistic assay, without any transformation of the data): 15.1
IC50 (CCR7 [3]; TANGO β-arrestin antagonist assay, CCR7, read-out: IC50, antagonistic activity): 9.1 µM
Hill slope (CCR7 [3]; same data transformed to log units, normalized, GraphPad 6): 11.2
IC50 (CCR7 [3]; same data transformed to log units, normalized, GraphPad 6, read-out: IC50): 9.2 µM

From patent US20250206754A1, “PAN-CHEMOKINE ANTAGONISTS FOR USE IN TREATING CANCER AND IMMUNE DISORDERS” ("Micar Innovation" LTD., priority 2022, published 2025)
